Results reported in US12071402B2, “Immunosuppressant formulations” (Novartis AG, priority 2011, dated 2024).

Assay: Stability of NVS-A in mixtures with various compounds, 50° C./75% RH, 4 weeks, HPLC assay
Type: physicochemical
Conditions: vial
Protocol: The following Example illustrates the stability of the hemifumarate salt of 1-{4-[1-(4-cyclohexyl-3-trifluoromethyl-benzyloxyimino)-ethyl]-2-ethyl-benzyl}-azetidine-3-carboxylic acid in the presence of various compounds. Mixtures of this API with various compounds were exposed in a sealed vial to conditions of 50° C. temperature and 75% relative humidity for 4 weeks. After 4 weeks, the API degradation and sum of degradation products were assayed.
Assay method: HPLC using agilent […] and a Phenomenex Gemini C18 column. UV detection at 260 nm was used. The mobile phase used was a gradient water-acetonitrile containing 0.2% (v/v) formic acid and 10% (v/v) Triethylamine.

Structure (SMILES): CCc1cc(C(C)=NOCc2ccc(C3CCCCC3)c(C(F)(F)F)c2)ccc1CN1CC(C(=O)O)C1 [NVS-A, 1-{4-[1-(4-cyclohexyl-3-trifluoromethyl-benzyloxyimino)-ethyl]-2-ethyl-benzyl}-azetidine-3-carboxylic acid]
- Assay (%)*: 100.2%
- Sum of unknown peaks (%)*: 1.86%
